Measurements reported in patent US10981891B2, “Antibacterial compounds and uses thereof” (priority 2016, dated 2021).
Converted amounts (≈) assume the structure as drawn.

System: M. tuberculosis H37Rv (ATCC 27294)
Experiment: Microplate Alamar Blue assay (MABA), MIC against replicating M. tuberculosis H37Rv
Format: cell-based
Conditions: Mycobacterium tuberculosis, 168 h, read-out: M. tuberculosis MIC

**Q.** With `COc1nc2ccc(Br)cc2cc1C(c1ccnc(OC)c1OC)C(O)(CCN(C)C)c1cc2ccccc2o1` (stereo not shown) [Example 7, 2-(Benzofuran-2-yl)-1-(6-bromo-2-methoxyquinolin-3-yl)-1-(2,3-dimethoxypyridin-4-yl)-4-(dimethylamino)butan-2-ol] as the compound, how does the MIC read?
**A.** Its MIC is 0.03 µg/mL (≈ 0.0495 µM).

Same assay, conditions: Mycobacterium tuberculosis, 168 h; H37Rv, MABA, 7H12 media, 7 days at 37° C.; MIC = lowest concentration reducing fluorescence by 90% relative to controls; read-out: M. tuberculosis MIC

**Q.** Which MIC does the source give for `CCSc1cc(C(O)(CCN(C)C)C(c2cc3cc(Br)ccc3nc2OC)c2cccc(OC)c2F)cc(SCC)n1` (stereo not shown) [Example 44, 2-(2,6-Bis(ethylthio)pyridin-4-yl)-1-(6-bromo-2-methoxyquinolin-3-yl)-4-(dimethylamino)-1-(2-fluoro-3-methoxyphenyl)butan-2-ol] here?
**A.** Its MIC is < 0.02 µg/mL.

**Q.** How did the MIC turn out when `COc1cc(C(c2cc3cc(Br)ccc3nc2OC)C(O)(CCN(C)C)c2cccc(F)c2)cnc1OC` (stereo not shown) [Example 3, 1-(6-Bromo-2-methoxyquinolin-3-yl)-1-(5,6-dimethoxypyridin-3-yl)-4-(dimethylamino)-2-(3-fluorophenyl)butan-2-ol] was run?
**A.** The MIC was 0.47 µg/mL (≈ 0.804 µM).

**Q.** For `COc1nc2ccc(Br)cc2cc1C(c1ccnc(OC)c1OC)C(O)(CCN(C)C)c1cccc(C)c1` (stereo not shown) [Example 4, 1-(6-Bromo-2-methoxyquinolin-3-yl)-1-(2,3-dimethoxypyridin-4-yl)-4-(dimethylamino)-2-(m-tolyl)butan-2-ol], which MIC is on record?
**A.** The MIC was 0.02 µg/mL (≈ 0.0345 µM).

**Q.** Which MIC does the source give for `COc1nc2ccc(Br)cc2cc1C(c1ccnc(OC)c1OC)C(O)(CCN(C)C)c1cc(SC)nc(SC)c1` (stereo not shown) [Example 46, 2-(2,6-Bis(methylthio)pyridin-4-yl)-1-(6-bromo-2-methoxyquinolin-3-yl)-1-(2,3-dimethoxypyridin-4-yl)-4-(dimethylamino)butan-2-ol] here?
**A.** The MIC was < 0.02 µg/mL.

**Q.** For `COc1cc(C(O)(CCN(C)C)C(c2cc3cc(Br)ccc3nc2OC)c2cccc3c2OCCO3)cc(OC(F)F)n1` (stereo not shown) [Example 58, 1-(6-Bromo-2-methoxyquinolin-3-yl)-2-(2-(difluoromethoxy)-6-methoxypyridin-4-yl)-1-(2,3-dihydrobenzo[b][1,4]dioxin-5-yl)-4-(dimethylamino)butan-2-ol], which MIC is on record?
**A.** Its MIC is < 0.01 µg/mL.

**Q.** Which MIC does the source give for `COc1nc2ccc(Br)cc2cc1C(c1ccccc1)C(O)(CCN(C)C)c1cccc2ccoc12` (stereo not shown) [Example 2, 2-(Benzofuran-7-yl)-1-(6-bromo-2-methoxyquinolin-3-yl)-4-(dimethylamino)-1-phenylbutan-2-ol] here?
**A.** Its MIC is 0.07 µg/mL (≈ 0.128 µM).
